The source of these data is ChEMBL document CHEMBL1926553, “Synthesis and antitumor activity of conjugates of 5-Fluorouracil and emodin” (Eur J Med Chem, 2012).

Structures are written as SMILES. Bounds are passed on as bounds.

A short description of data set [1]: Ratio of compound IC50 to emodin IC50 for human HEK293 cells after 2 days by alamar blue assay. To be noted: read-out: Ratio IC50. It is filed as ADME, cell-based.
The next data set concerns HEK293. Nature of the data set: Cytotoxicity against human HEK293 cells after 2 days by alamar blue assay. To be noted: HEK293, 48 h. It is filed as cell-based.
Data set [2] has as its system SGC-7901. Description: Cytotoxicity against human SGC7901 cells after 2 days by alamar blue assay. It is filed as functional, cell-based. The settings on record: SGC-7901, 48 h.
For a further data set, the system named is HepG2. Nature of the data set: Cytotoxicity against human HepG2 cells after 2 days by alamar blue assay. It is filed as functional, cell-based. To be noted: HepG2, 48 h.
The test system of data set [3] is SGC-7901. Nature of the data set: Ratio of emodin IC50 to compound IC50 for human SGC7901 cells after 2 days by alamar blue assay. It is filed as functional.
The nature of data set [4]: Cytotoxicity against human HO8910 cells after 2 days by alamar blue assay. It is filed as functional, cell-based. To be noted: HO-8910, 48 h.
Data set [5] is described as follows: Ratio of compound IC50 to 5-Fluorouracil IC50 for human HEK293 cells after 2 days by alamar blue assay. It is filed as ADME, cell-based. The settings on record: read-out: Ratio IC50.

Take `COc1cc(OC)c2c(c1)C(=O)c1cc(C)c(Cn3cc(F)c(=O)n(Cc4ccccc4C#N)c3=O)c(OC)c1C2=O`: the selectivity ratio at 48 h in data set [1] was found to be 23. In addition, the half-maximal inhibitory concentration (IC50) in the data set on HEK293 (read-out: IC50) was found to be 29.6 µM; in the data set on SGC-7901 [2], 21.4 µM; with HepG2 it was 39.9 µM; in data set [4] it was 22.6 µM. Moreover, the “Ratio IC50” value in the data set on SGC-7901 [3] worked out at 3.
In the case of `O=c1[nH]cc(F)c(=O)[nH]1` [FLUOROURACIL], the IC50 with HEK293 is 42.9 µM; with SGC-7901 [2], 76 µM; in the data set on HepG2 it was 76.7 µM; in data set [4], 85.5 µM.
In the case of `COc1cc(OC)c2c(c1)C(=O)c1cc(C)c(Cn3cc(F)c(=O)n(CC=C(C)C)c3=O)c(OC)c1C2=O`, the IC50 (in the data set with SGC-7901 [2]; in the data set on HepG2; in data set [4]) was greater than 100 µM throughout.
As to `COc1cc(OC)c2c(c1)C(=O)c1cc(C)c(Cn3cc(F)c(=O)n(C)c3=O)c(OC)c1C2=O`, the IC50 (in the data set on SGC-7901 [2]; in the data set on HepG2; in data set [4]) was greater than 100 µM each time.
For the compound `COc1cc(OC)c2c(c1)C(=O)c1cc(C)c(Cn3cc(F)c(=O)n(Cc4cccc(F)c4)c3=O)c(OC)c1C2=O`, the IC50 (in the data set on HEK293 (read-out: IC50); in the data set with SGC-7901 [2]; in the data set with HepG2; in data set [4]) was greater than 100 µM throughout.
Consider `COc1cc(OC)c2c(c1)C(=O)c1cc(C)c(Cn3cc(F)c(=O)n(Cc4ccccc4F)c3=O)c(OC)c1C2=O`, for which the selectivity ratio at 48 h in data set [5] was 1.5. In addition, the IC50 with HEK293 (read-out: IC50) is 66.6 µM; with SGC-7901 [2] it was 61 µM; with HepG2, greater than 100 µM; in data set [4], 91.1 µM.
For the compound `COc1cc(OC)c2c(c1)C(=O)c1cc(C)c(Cn3cc(F)c(=O)n(Cc4ccc5c(c4)OCO5)c3=O)c(OC)c1C2=O`, the IC50 in the data set on HEK293 (read-out: IC50) was 30 µM; in the data set on SGC-7901 [2], greater than 100 µM; with HepG2 it was 91 µM; in data set [4] it was greater than 100 µM.
As for `CCCCn1c(=O)c(F)cn(Cc2c(C)cc3c(c2OC)C(=O)c2c(OC)cc(OC)cc2C3=O)c1=O`, the IC50 (in the data set with SGC-7901 [2]; with HepG2; in data set [4]) was greater than 100 µM each time.
For `Cc1cc(O)c2c(c1)C(=O)c1cc(O)cc(O)c1C2=O` [EMODIN], the IC50 was 1.3 µM in the data set with HEK293 (read-out: IC50), 61.3 µM with SGC-7901 [2], 13.1 µM with HepG2 and 16 µM in data set [4].
Consider `COc1cc(OC)c2c(c1)C(=O)c1cc(C)c(Cn3cc(F)c(=O)[nH]c3=O)c(OC)c1C2=O`, for which the IC50 (in the data set with HEK293 (read-out: IC50); in the data set with SGC-7901 [2]; in the data set with HepG2; in data set [4]) was greater than 100 µM in each case.
As to `CCn1c(=O)c(F)cn(Cc2c(C)cc3c(c2OC)C(=O)c2c(OC)cc(OC)cc2C3=O)c1=O`, the IC50 (in the data set on SGC-7901 [2]; with HepG2; in data set [4]) was greater than 100 µM each time.
Consider `COc1cc(OC)c2c(c1)C(=O)c1cc(C)c(Cn3cc(F)c(=O)n(Cc4ccccc4)c3=O)c(OC)c1C2=O`, for which the IC50 was greater than 100 µM with HEK293 (read-out: IC50), 39.5 µM in the data set on SGC-7901 [2], greater than 100 µM with HepG2 and 45.1 µM in data set [4]. Moreover, the “Ratio IC50” value in the data set with SGC-7901 [3] is 1.5.
Turning to `C/C=C/Cn1c(=O)c(F)cn(Cc2c(C)cc3c(c2OC)C(=O)c2c(OC)cc(OC)cc2C3=O)c1=O`, the IC50 (in the data set with SGC-7901 [2]; with HepG2; in data set [4]) was greater than 100 µM each time.
Turning to `COc1cc(OC)c2c(c1)C(=O)c1cc(C)c(Cn3cc(F)c(=O)n(CCc4ccccc4)c3=O)c(OC)c1C2=O`, the IC50 is 4.6 µM in the data set on HEK293 (read-out: IC50), greater than 100 µM with SGC-7901 [2], 68.6 µM with HepG2 and 11.6 µM in data set [4].
